# In paper PMC11277489, “Novel Piperazine Derivatives of Vindoline as Anticancer Agents” (International Journal of Molecular Sciences, 2024):
# Where two headings read alike, the source gives them in different places.
# Key:
# Type in all cases: cell-based
# UACC-62 = assay: NCI60 five-dose screen, Melanoma; conditions: Homo sapiens; UACC-62, Melanoma; five-dose screen; read-out: GI50
# MCF7 = assay: NCI60 five-dose screen, Breast Cancer; conditions: Homo sapiens; MCF7, Breast Cancer; five-dose screen; read-out: GI50
# EKVX = assay: NCI60 five-dose screen, Non-small Cell Lung Cancer; conditions: Homo sapiens, Non-small Cell Lung Cancer, five-dose screen, read-out: GI50
# HT29 = assay: NCI60 five-dose screen, Colon Cancer; conditions: Homo sapiens, HT-29; HT29, Colon Cancer; five-dose screen; read-out: GI50
# SF-295 = assay: NCI60 five-dose screen, CNS Cancer; conditions: Homo sapiens; SF-295, CNS Cancer; five-dose screen; read-out: GI50
# SN12C = assay: NCI60 five-dose screen, Renal Cancer; conditions: Homo sapiens, Renal Cancer, five-dose screen, read-out: GI50
# RXF 393 = assay: NCI60 five-dose screen, Renal Cancer; conditions: Homo sapiens, RXF 393, Renal Cancer
# 786–0 = assay: NCI60 five-dose screen, Renal Cancer; conditions: Homo sapiens; 786–0, Renal Cancer; five-dose screen; read-out: GI50
# NCI-H23 = assay: NCI60 five-dose screen, Non-small Cell Lung Cancer; conditions: Homo sapiens; NCI-H23, Non-small Cell Lung Cancer; five-dose screen; read-out: GI50
# A498 = assay: NCI60 five-dose screen, Renal Cancer; conditions: Homo sapiens; A498, Renal Cancer; five-dose screen; read-out: GI50
# SNB-19 = assay: NCI60 five-dose screen, CNS Cancer; conditions: Homo sapiens; SNB-19, CNS Cancer; five-dose screen; read-out: GI50
# HOP-62 = assay: NCI60 five-dose screen, Non-small Cell Lung Cancer; conditions: Homo sapiens; HOP-62, Non-small Cell Lung Cancer; five-dose screen; read-out: GI50
# CCRF-CEM = assay: NCI60 five-dose screen, Leukemia; conditions: Homo sapiens, Leukemia, five-dose screen, read-out: GI50
# OVCAR-8 = assay: NCI60 five-dose screen, Ovarian Cancer; conditions: Homo sapiens; OVCAR-8, Ovarian Cancer; five-dose screen; read-out: GI50
# UO-31 = assay: NCI60 five-dose screen, Renal Cancer; conditions: Homo sapiens; UO-31, Renal Cancer; five-dose screen; read-out: GI50
# NCI-H522 = assay: NCI60 five-dose screen, Non-small Cell Lung Cancer; conditions: Homo sapiens; NCI-H522, Non-small Cell Lung Cancer; five-dose screen; read-out: GI50
# SF-539 = assay: NCI60 five-dose screen, CNS Cancer; conditions: Homo sapiens; SF-539, CNS Cancer; five-dose screen; read-out: GI50
# NCI-H322M = assay: NCI60 five-dose screen, Non-small Cell Lung Cancer; conditions: Homo sapiens, Non-small Cell Lung Cancer, five-dose screen, read-out: GI50
# KM12 = assay: NCI60 five-dose screen, Colon Cancer; conditions: Homo sapiens; KM12, Colon Cancer; five-dose screen; read-out: GI50
# SK-MEL-2 = assay: NCI60 five-dose screen, Melanoma; conditions: Homo sapiens; SK-MEL-2, Melanoma; five-dose screen; read-out: GI50
# SK-OV-3 = assay: NCI60 five-dose screen, Ovarian Cancer; conditions: Homo sapiens; SK-OV-3, Ovarian Cancer; five-dose screen; read-out: GI50
# RPMI-8226 = assay: NCI60 five-dose screen, Leukemia; conditions: Homo sapiens; RPMI-8226, Leukemia; five-dose screen; read-out: GI50
# COLO 205 = assay: NCI60 five-dose screen, Colon Cancer; conditions: Homo sapiens; COLO 205, Colon Cancer; five-dose screen; read-out: GI50
# SK-MEL-28 = assay: NCI60 five-dose screen, Melanoma; conditions: Homo sapiens; SK-MEL-28, Melanoma; five-dose screen; read-out: GI50
# [1] = system: 60 human tumor cell lines (NCI60); assay: NCI60 five-dose screen, whole panel and sub-panel means; conditions: read-out: GI50 Mean
# SNB-75 = assay: NCI60 five-dose screen, CNS Cancer; conditions: Homo sapiens; SNB-75, CNS Cancer; five-dose screen; read-out: GI50
# HCT-116 = assay: NCI60 five-dose screen, Colon Cancer; conditions: Homo sapiens; HCT-116, Colon Cancer; five-dose screen; read-out: GI50
# HOP-92 = assay: NCI60 five-dose screen, Non-small Cell Lung Cancer; conditions: Homo sapiens; HOP-92, Non-small Cell Lung Cancer; five-dose screen; read-out: GI50
# UACC-257 = assay: NCI60 five-dose screen, Melanoma; conditions: Homo sapiens; UACC-257, Melanoma; five-dose screen; read-out: GI50
# DU-145 = assay: NCI60 five-dose screen, Prostate Cancer; conditions: Homo sapiens; DU-145, Prostate Cancer; five-dose screen; read-out: GI50
# MOLT-4 = assay: NCI60 five-dose screen, Leukemia; conditions: Homo sapiens; MOLT-4, Leukemia; five-dose screen; read-out: GI50
# NCI-H226 = assay: NCI60 five-dose screen, Non-small Cell Lung Cancer; conditions: Homo sapiens; NCI-H226, Non-small Cell Lung Cancer; five-dose screen; read-out: GI50
# MALME-3M = assay: NCI60 five-dose screen, Melanoma; conditions: Homo sapiens; MALME-3M, Melanoma; five-dose screen; read-out: GI50
# CAKI-1 = assay: NCI60 five-dose screen, Renal Cancer; conditions: Homo sapiens; CAKI-1, Renal Cancer; five-dose screen; read-out: GI50
# [2] = Homo sapiens, 60 cell, mean over all 60 cell lines
# [3] = Homo sapiens, mean over Breast Cancer panel
# [4] = Homo sapiens, mean over CNS Cancer panel
# [5] = Homo sapiens, mean over Colon Cancer panel
# [6] = Homo sapiens, mean over Leukemia panel
# [7] = Homo sapiens, mean over Melanoma panel
# [8] = Homo sapiens, mean over Non-small Cell Lung Cancer panel
# [9] = Homo sapiens, mean over Ovarian Cancer panel
# [10] = Homo sapiens, mean over Prostate Cancer panel
# [11] = Homo sapiens, mean over Renal Cancer panel
smiles,measurement,setting,value
CC[C@]12C=CCN3CC[C@@]4(c5ccc(OC)cc5N(C)[C@H]4[C@@](O)(C(=O)OC)[C@@H]1OC(=O)CCCN1CCN(c4ccc(C(F)(F)F)cc4)CC1)[C@@H]32 [Compound 22],GI50,UACC-62,3.31 µM
same,GI50,MCF7,2 µM
same,GI50,EKVX,3.09 µM
same,GI50,HT29,1.74 µM
same,GI50,SF-295,1.95 µM
same,GI50,SN12C,2.63 µM
same,GI50,RXF 393,1.55 µM
same,GI50,786–0,2.57 µM
same,GI50,NCI-H23,4.57 µM
same,GI50,A498,3.72 µM
same,GI50,SNB-19,3.55 µM
same,GI50,HOP-62,3.02 µM
same,GI50,CCRF-CEM,1.86 µM
same,GI50,OVCAR-8,3.02 µM
same,GI50,UO-31,1.86 µM
same,GI50,NCI-H522,1.91 µM
same,GI50,SF-539,1.78 µM
same,GI50,NCI-H322M,3.72 µM
same,GI50,KM12,2.14 µM
same,GI50,SK-MEL-2,2.19 µM
same,GI50,SK-OV-3,3.72 µM
same,GI50,RPMI-8226,2.04 µM
same,GI50,COLO 205,1.78 µM
same,GI50,SK-MEL-28,1.95 µM
same,GI50,[1]; [2],< 4 µM
same,GI50,[1]; [3],2.51 µM
same,GI50,[1]; [4],2.47 µM
same,GI50,[1]; [5],2.02 µM
same,GI50,[1]; [6],1.77 µM
same,GI50,[1]; [7],1.98 µM
same,GI50,[1]; [8],2.88 µM
same,GI50,[1]; [9],3.05 µM
same,GI50,[1]; [10],2.67 µM
same,GI50,[1]; [11],2.59 µM
same,GI50,[1]; mean over all 60 cell lines,2.44 µM
same,GI50,SNB-75,1.66 µM
same,GI50,HCT-116,1.91 µM
same,GI50,HOP-92,1.95 µM
same,GI50,UACC-257,1.82 µM
same,GI50,DU-145,2.88 µM
same,GI50,MOLT-4,1.95 µM
same,GI50,NCI-H226,2.88 µM
same,GI50,MALME-3M,1.58 µM
same,GI50,CAKI-1,2.24 µM
CC[C@]12C=CCN3CC[C@@]4(c5ccc(OC)cc5N(C)[C@H]4[C@@](O)(C(=O)OC)[C@@H]1OC(=O)CCC(=O)N1CCN(Cc4ccc(C(F)(F)F)cc4)CC1)[C@@H]32 [Compound 29],GI50,UACC-62,11 µM
same,GI50,MCF7,5.62 µM
same,GI50,EKVX,7.59 µM
same,GI50,HT29,6.76 µM
same,GI50,SF-295,9.33 µM
same,GI50,SN12C,11.5 µM
same,GI50,RXF 393,4.47 µM
same,GI50,786–0,12.3 µM
same,GI50,NCI-H23,12 µM
same,GI50,A498,12.3 µM
same,GI50,SNB-19,11.8 µM
same,GI50,HOP-62,14.1 µM
same,GI50,CCRF-CEM,11.8 µM
same,GI50,OVCAR-8,12 µM
same,GI50,UO-31,6.92 µM
same,GI50,NCI-H522,12.6 µM
same,GI50,SF-539,12.9 µM
same,GI50,NCI-H322M,14.5 µM
same,GI50,KM12,11.8 µM
same,GI50,SK-MEL-2,2.82 µM
same,GI50,SK-OV-3,12.6 µM
same,GI50,RPMI-8226,6.92 µM
same,GI50,COLO 205,7.08 µM
same,GI50,SK-MEL-28,11.8 µM
same,GI50,[1]; [2],9.76 µM
same,GI50,[1]; [3],8.72 µM
same,GI50,[1]; [4],11.1 µM
same,GI50,[1]; [5],9.71 µM
same,GI50,[1]; [6],9.07 µM
same,GI50,[1]; [7],9.42 µM
same,GI50,[1]; [8],10.4 µM
same,GI50,[1]; [9],10.6 µM
same,GI50,[1]; [10],7.3 µM
same,GI50,[1]; [11],9.9 µM
same,GI50,SNB-75,15.5 µM
same,GI50,HCT-116,7.76 µM
same,GI50,HOP-92,4.27 µM
same,GI50,UACC-257,11.5 µM
same,GI50,DU-145,11.2 µM
same,GI50,MOLT-4,5.25 µM
same,GI50,NCI-H226,9.77 µM
same,GI50,MALME-3M,11.5 µM
same,GI50,CAKI-1,8.71 µM
